The structures appear in SMILES notation.

This is an account of results in ChEMBL document CHEMBL3217691, “Discovery and optimization of efficacious neutral 4-amino-6-biphenyl-7,8-dihydropyrimido[5,4-f][1,4]oxazepin-5-one diacylglycerol acyl transferase-1 (DGAT1) inhibitors” (Medchemcomm, 2013).

The nature of series [1]: Oral bioavailability in Han Wistar rat at 2.3 to […]. It counts as ADME, organism-based. Conditions: in vivo.
A short description of a further series: in vivo. Conditions: Han Wistar, rat, iv.
The nature of series [2]: in vitro. As to conditions: rat, hepatocytes.
The next series in a line: physchem. Conditions: buffer, pH 7.4.
Series [3] can be described thus: in vitro. As to conditions: human, Caco-2.
Series [4] in a line: Oral bioavailability in dog at 0.5 mg/kg. As to conditions: in vivo. Type of series: ADME, organism-based, Canis lupus familiaris.
Series [5] can be described thus: Oral bioavailability in mouse at 2 mg/kg. Type of series: ADME, organism-based. As to conditions: in vivo.
A short description of series [6]: Oral bioavailability in rat at 2 mg/kg. Type of series: ADME, organism-based. As to conditions: in vivo.
Series [7] can be described thus: Half life in rat at 2 mg/kg, po. Also on record: dose 2 mg/kg, route oral. It counts as ADME, organism-based. Conditions: in vivo.
The nature of series [8]: Half life in mouse at 2 mg/kg, po. It counts as ADME, organism-based. Conditions: in vivo. The arrangement: dose 2 mg/kg, route oral.
Series [9] in a line: Half life in dog at 0.5 mg/kg, iv. Type of series: ADME, organism-based, Canis lupus familiaris. Also on record: dose 0.5 mg/kg, route intravenous. Conditions: in vivo.
Series [10] is described as follows: Half life in rat at 1 mg/kg, iv. Type of series: ADME, organism-based. The arrangement: dose 1 mg/kg, route intravenous. As to conditions: in vivo.
The nature of series [11]: Half life in mouse at 2 mg/kg, iv. It counts as ADME, organism-based. Also on record: dose 2 mg/kg, route intravenous. As to conditions: in vivo.
In a further series the test system is Canis familiaris. Kind of series: Volume of distribution at steady state in dog plasma at 0.5 mg/kg, iv and po. As to conditions: in vivo. The arrangement: dose 0.5 mg/kg, route oral. Type of series: ADME, organism-based, Canis lupus familiaris.
Series [12] is described as follows: Volume of distribution at steady state in rat plasma at 1 mg/kg, iv and 2 mg/kg, po. It counts as ADME, organism-based. Conditions: read-out: Vdss.
The test system of a further series is Mus musculus. The series can be described thus: Volume of distribution at steady state in mouse plasma at 2 mg/kg, iv and po. Type of series: ADME, organism-based. The arrangement: dose 2 mg/kg, route oral. As to conditions: in vivo.
Series [13] can be described thus: Clearance in rat plasma at 1 mg/kg, iv and 2 mg/kg, po. It counts as ADME, organism-based.

The hepatocyte CLint is a measure of how fast metabolising enzymes remove a compound, apart from limits set by blood flow. Read a high hepatocyte CLint as rapid turnover. In general, logD refers to lipophilicity at a set pH, counting ionised and neutral species. Low readings indicate lower lipophilicity, high ones higher lipophilicity. One may read the Papp A→B as how fast a substance crosses the layer from the apical side. Low readings indicate poor permeation, high ones ready permeation. As for `Nc1ncnc2c1C(=O)N(c1ccc(-c3ccccc3Cl)cc1)CCO2`, the bioavailability in [1] (at 2.3 to […]) is 65%. Further, the clearance in the series “in vivo” came to 21 mL/min/kg. In “in vitro [2]”, the intrinsic clearance (hepatocyte CLint) is 11.1 µL/min/1e6 cells. In addition, the logD in “physchem” was determined as 2.9. Further, the Papp A→B in the series “in vitro [3]” turned out to be 32.5 ×10⁻⁶ cm/s.

`Nc1ncnc2c1C(=O)N(c1ccc(-c3ccc(Cn4cccnc4=O)cc3Cl)cc1)CCO2`: in “in vitro [2]”, the hepatocyte CLint amounted to 18.4 µL/min/1e6 cells.

On to `Nc1ncnc2c1C(=O)N(c1ccc(-c3ccc(Cl)cc3Cl)cc1)CCO2`, for which the bioavailability in [1] was found to be 87%. The compound further returned a logD in the series “physchem” of more than 3.9.

For the compound `CN(Cc1ccc(-c2ccc(N3CCOc4ncnc(N)c4C3=O)cc2)c(Cl)c1)S(C)(=O)=O`, the bioavailability in series [1] (at 2.3 to […]) turned out to be 28%. In addition, the clearance in “in vivo” amounted to 5 mL/min/kg. Also, in “in vitro [2]”, the hepatocyte CLint is 5.9 µL/min/1e6 cells.

Turning to `CC(=O)N(C)Cc1ccc(-c2ccc(N3CCOc4ncnc(N)c4C3=O)cc2)c(Cl)c1`, the hepatocyte CLint in “in vitro [2]” stood at 11 µL/min/1e6 cells. The logD in “physchem” came out at 1.9. Moreover, the apparent permeability from apical to basolateral (Papp A→B) in “in vitro [3]” amounted to 19.7 ×10⁻⁶ cm/s.

Compound `N#Cc1cccc(-c2ccc(N3CCOc4ncnc(N)c4C3=O)cc2)c1Cl` had a hepatocyte CLint in the series “in vitro [2]” of 4.6 µL/min/1e6 cells. In addition, the log distribution coefficient (logD) in the series “physchem” stood at 2.5. Moreover, in “in vitro [3]”, the Papp A→B stood at 54.8 ×10⁻⁶ cm/s.

Take `Nc1ncnc2c1C(=O)N(c1ccc(-c3ccccc3)cc1)CCO2`: the logD in the series “physchem” amounted to 2.4. Further, the Papp A→B in the series “in vitro [3]” is more than 10 ×10⁻⁶ cm/s.

Compound `NC(=O)Cc1ccc(-c2ccc(N3CCOc4ncnc(N)c4C3=O)cc2)c(Cl)c1` yielded a hepatocyte CLint in “in vitro [2]” of 35 µL/min/1e6 cells. In “physchem”, this compound came in with a logD of 1.3.

`Nc1ncnc2c1C(=O)N(c1ccc(-c3ccc(C(F)F)cc3Cl)cc1)CCO2`: the bioavailability in series [1] (at 2.3 to […]) stood at 150%. The compound also yielded a logD in the series “physchem” of 3.2.

In “physchem”, `Nc1ncnc2c1C(=O)N(c1ccc(-c3c(F)cccc3F)cc1)CCO2` had a logD of 2.5. The Papp A→B in the series “in vitro [3]” is more than 10 ×10⁻⁶ cm/s.

In turn, `N#Cc1cccc(Cl)c1-c1ccc(N2CCOc3ncnc(N)c3C2=O)cc1` had a logD in the series “physchem” of 2.1. In “in vitro [3]”, the Papp A→B is more than 10 ×10⁻⁶ cm/s.

`CC(=O)NCc1ccc(-c2ccc(N3CCOc4ncnc(N)c4C3=O)cc2)c(Cl)c1`: the bioavailability in series [1] (at 2.3 to […]) stood at 100%. Further, the logD in “physchem” was 1.8. The compound further displayed a Papp A→B in “in vitro [3]” of 14.5 ×10⁻⁶ cm/s.

For `Cc1ccc(-c2ccc(N3CCOc4ncnc(N)c4C3=O)cc2)c(Cl)c1`, the bioavailability in series [1] (at 2.3 to […]) was found to be 14%. The same compound had a logD in “physchem” of 3.5. In “in vitro [3]”, this compound yielded a Papp A→B of 16.6 ×10⁻⁶ cm/s.

For `Nc1ncnc2c1C(=O)N(c1ccc(-c3ncccc3Cl)cc1)CCO2`, the bioavailability in series [1] (at 2.3 to […]) stood at 68%. In “physchem”, the logD stood at 1.5. For the same compound, in the series “in vitro [3]”, the Papp A→B was more than 10 ×10⁻⁶ cm/s.

In the case of `CS(=O)(=O)NCc1ccc(-c2ccc(N3CCOc4ncnc(N)c4C3=O)cc2)c(Cl)c1`, the bioavailability in [1] (at 2.3 to […]) amounted to 21%. In “physchem”, this compound yielded a pH-dependent lipophilicity (logD) of 1.8. Further, the Papp A→B in “in vitro [3]” was found to be 11.3 ×10⁻⁶ cm/s.

`Nc1ncnc2c1C(=O)N(c1ccc(-c3c(F)cccc3F)c(F)c1)CCO2` gave a logD in the series “physchem” of 2.9. This compound also returned a Papp A→B in “in vitro [3]” of more than 10 ×10⁻⁶ cm/s.

The compound `Cc1cccc(Cl)c1-c1ccc(N2CCOc3ncnc(N)c3C2=O)cc1` gave a logD in the series “physchem” of 3.4. In the series “in vitro [3]”, this compound displayed a Papp A→B of more than 10 ×10⁻⁶ cm/s.

Regarding `CN(Cc1ccc(-c2ccc(N3CCOc4ncnc(N)c4C3=O)cc2)c(Cl)c1)C(=O)CCCN`, the intrinsic clearance (hepatocyte CLint) in the series “in vitro [2]” is less than 2 µL/min/1e6 cells. This compound displayed a logD in “physchem” of -1. In addition, the Papp A→B in the series “in vitro [3]” amounted to 0.2 ×10⁻⁶ cm/s.

Take `Nc1ncnc2c1C(=O)N(c1ccc(-c3ccc(CN4CC[C@H](O)C4=O)cc3Cl)cc1)CCO2`: in the series “in vitro [2]”, the hepatocyte CLint is less than 2 µL/min/1e6 cells. The logD in the series “physchem” came out at 1.1. This compound also registered a Papp A→B in “in vitro [3]” of 6.4 ×10⁻⁶ cm/s.

In general, half-life refers to how long it takes for the measured level to halve. Regarding `Nc1ncnc2c1C(=O)N(c1ccc(-c3ccccc3F)cc1)CCO2`, the bioavailability in series [4] was 76%; in series [5] it was more than 100%; in series [6], 93%; in [1] (at 2.3 to […]), 93%. In addition, the half-life in series [7] is 3.3 h; in series [8], 3.1 h; in series [9] it was 1.2 h; in [10], 6.7 h; in series [11] it was 3.5 h. Further, the Vdss in the series on Canis familiaris was 2.4 L/kg; in the series with Mus musculus it was 0.6 L/kg. For the same compound, the Vd in series [12] was 1.9 L/kg. Further, the clearance in series [13] turned out to be 7.3 mL/min/kg; in “in vivo”, 7 mL/min/kg. Further, the hepatocyte CLint in the series “in vitro [2]” is less than 2 µL/min/1e6 cells. Moreover, the apparent permeability from apical to basolateral (Papp A→B) in “in vitro [3]” was more than 10 ×10⁻⁶ cm/s.

Take `Nc1ncnc2c1C(=O)N(c1ccc(-c3ccccc3Cl)c(F)c1)CCO2`: the bioavailability in series [1] (at 2.3 to […]) came to 14%. In addition, the clearance in the series “in vivo” is 18 mL/min/kg. Also, the logD in the series “physchem” is 3. Moreover, the apparent permeability from apical to basolateral (Papp A→B) in “in vitro [3]” is more than 10 ×10⁻⁶ cm/s.

For the compound `CS(=O)(=O)Cc1ccc(-c2ccc(N3CCOc4ncnc(N)c4C3=O)cc2)c(Cl)c1`, in series [1] (at 2.3 to […]), the bioavailability turned out to be 61%. This compound also registered a clearance in “in vivo” of 5 mL/min/kg. Also, the hepatocyte CLint in “in vitro [2]” was less than 2.8 µL/min/1e6 cells.

For the compound `Nc1ncnc2c1C(=O)N(c1ccc(-c3cc(Cl)ccc3Cl)cc1)CCO2`, the bioavailability in series [1] (at 2.3 to […]) came to 110%. In “in vivo”, this compound showed a clearance of 12 mL/min/kg. The compound further gave a hepatocyte CLint in the series “in vitro [2]” of 9.5 µL/min/1e6 cells. Further, the logD in “physchem” is 3.7. In the series “in vitro [3]”, this compound displayed a Papp A→B of 16.2 ×10⁻⁶ cm/s.

In “in vitro [2]”, `Nc1ncnc2c1C(=O)N(c1ccc(-c3ccc(CC(=O)N4CC(O)C4)cc3Cl)cc1)CCO2` showed a hepatocyte CLint of less than 3.1 µL/min/1e6 cells. The logD in “physchem” worked out at 1.1.

Take `CN(Cc1ccc(-c2ccc(N3CCOc4ncnc(N)c4C3=O)cc2)c(Cl)c1)C(=O)CCN`: the intrinsic metabolic clearance (hepatocyte CLint) in the series “in vitro [2]” was less than 2 µL/min/1e6 cells. In “physchem”, this compound showed a logD of -0.5. The compound further gave a Papp A→B in the series “in vitro [3]” of 0.3 ×10⁻⁶ cm/s.

Compound `CN(Cc1ccc(-c2ccc(N3CCOc4ncnc(N)c4C3=O)cc2)c(Cl)c1)C(=O)CN` returned a hepatocyte CLint in “in vitro [2]” of 4.9 µL/min/1e6 cells. In the series “physchem”, this compound yielded a log distribution coefficient (logD) of 0.1. Further, the Papp A→B in “in vitro [3]” was determined as 0.2 ×10⁻⁶ cm/s.

Turning to `Nc1ncnc2c1C(=O)N(c1ccc(-c3ccc(CC(=O)N4CCNC(=O)C4)cc3Cl)cc1)CCO2`, in series [1] (at 2.3 to […]), the bioavailability is 3%. This compound returned a logD in the series “physchem” of 0.9.

Regarding `Nc1ncnc2c1C(=O)N(c1ccc(-c3ccc(CC(=O)N4CC[C@@H](O)C4)cc3Cl)cc1)CCO2`, the bioavailability in series [1] (at 2.3 to […]) came out at 15%. For the same compound, in “physchem”, the pH-dependent lipophilicity (logD) amounted to 1.1. The same compound registered a Papp A→B in “in vitro [3]” of 1.1 ×10⁻⁶ cm/s.

`Nc1ncnc2c1C(=O)N(c1ccc(-c3cccc(Cl)c3Cl)cc1)CCO2`: the bioavailability in series [1] (at 2.3 to […]) was 150%. This compound also yielded a clearance in the series “in vivo” of 24 mL/min/kg. This compound registered an intrinsic metabolic clearance (hepatocyte CLint) in “in vitro [2]” of 9.3 µL/min/1e6 cells. In the series “physchem”, this compound showed a logD of 3.8.

For `N#Cc1ccc(-c2ccc(N3CCOc4ncnc(N)c4C3=O)cc2)c(Cl)c1`, the hepatocyte CLint in “in vitro [2]” worked out at 4.8 µL/min/1e6 cells. In “physchem”, this compound displayed a pH-dependent lipophilicity (logD) of 2.4. In the series “in vitro [3]”, this compound returned a Papp A→B of 48.2 ×10⁻⁶ cm/s.

On to `Cc1ccccc1-c1ccc(N2CCOc3ncnc(N)c3C2=O)cc1`, for which the logD in the series “physchem” was found to be 2.7. This compound had an apical-to-basolateral permeability (Papp A→B) in the series “in vitro [3]” of more than 10 ×10⁻⁶ cm/s.

In the series “in vitro [2]”, `Nc1ncnc2c1C(=O)N(c1ccc(-c3ccc(CC(=O)O)cc3Cl)cc1)CCO2` registered a hepatocyte CLint of 14 µL/min/1e6 cells. In the series “physchem”, this compound gave a logD of -0.4.

In the series “in vitro [3]”, `Nc1ncnc2c1C(=O)N(c1ccc(-c3ccc(CO)cc3Cl)cc1)CCO2` returned an apical-to-basolateral permeability (Papp A→B) of 16.8 ×10⁻⁶ cm/s.
